{"source": "ChEMBL document CHEMBL5380876", "about": "“Non-fused imidazole-biphenyl analogs repress triple-negative breast cancer growth by mainly stabilizing the c-MYC G-quadruplex via a multi-site binding mode” (Bioorg Med Chem, 2023)", "key": {"[1]": {"assay": "Toxicity in BALB/c mouse xenografted with human MDA-MB-231 cells assessed as pain at 5 mg/kg, ip administered every other day for 20 days and measured every 4 days", "assay_type": "organism-based", "settings": "in vivo, 480 h, time 20 day"}, "MDA-MB-231 [2]": {"tested_on": "MDA-MB-231", "assay": "Cytotoxicity against human MDA-MB-231 cells assessed as inhibition of cell growth at 0 to 20 uM incubated for 24 hrs by CCK-8 assay", "assay_type": "functional, cell-based", "settings": "MDA-MB-231, 24 h"}, "MDA-MB-231 [3]": {"tested_on": "MDA-MB-231", "assay": "Cytotoxicity against human MDA-MB-231 cells assessed as inhibition of cell growth at 0 to 20 uM incubated for 72 hrs by CCK-8 assay", "assay_type": "functional, cell-based", "settings": "MDA-MB-231, 72 h"}, "[4]": {"assay": "Toxicity in BALB/c mouse xenografted with human MDA-MB-231 cells assessed as discomfort at 5 mg/kg, ip administered every other day for 20 days and measured every 4 days", "assay_type": "organism-based", "settings": "in vivo, 480 h, time 20 day"}, "MDA-MB-231 [5]": {"tested_on": "MDA-MB-231", "assay": "Induction of autophagy in human MDA-MB-231 cells assessed as aggregation of p62 protein expression level at 1 to 4 uM incubated for 24 hrs by Western blot analysis", "assay_type": "functional, cell-based", "settings": "dose 1-4 µM"}, "MDA-MB-231 [6]": {"tested_on": "MDA-MB-231", "assay": "Induction of cell cycle arrest in human MDA-MB-231 cells assessed as upregulation of p21 accumulation at 1 to 4 uM measured after 24 hrs by Western blot analysis", "assay_type": "functional, cell-based", "settings": "dose 1-4 µM"}, "MDA-MB-231 [7]": {"tested_on": "MDA-MB-231", "assay": "Induction of cell cycle arrest in human MDA-MB-231 cells assessed as accumulation of cells at S phase at 4 uM incubated for 24 hrs by propidium iodide staining based flow cytometry analysis (reference value: 15.50%)", "assay_type": "functional"}, "MDA-MB-231 [8]": {"tested_on": "MDA-MB-231", "assay": "Induction of autophagy in human MDA-MB-231 cells assessed as conversion of LC3B-I to LC3B-II at 1 to 4 uM incubated for 24 hrs by Western blot analysis", "assay_type": "functional, cell-based", "settings": "dose 1-4 µM"}, "Quadruplex DNA [9]": {"tested_on": "Quadruplex DNA", "assay": "Stabilization of c-MYC G4 quadruplex DNA (unknown origin) assessed as change in temperature incubated for 2 hrs in presence of KRAS by FRET assay", "assay_type": "nucleic-acid assay"}, "[10]": {"assay": "Cytotoxicity against human MCF-10A cells assessed as reduction in cell viability by CCK8 assay", "assay_type": "toxicity, cell-based"}, "MDA-MB-231 [11]": {"tested_on": "MDA-MB-231", "assay": "Induction of apoptosis in human MDA-MB-231 cells assessed as increase in early apoptotic cells at 1 to 4 uM incubated for 24 hrs by Annexin-V FITC/PI double staining based flow cytometry analysis", "assay_type": "functional, cell-based", "settings": "dose 1-4 µM"}, "Quadruplex DNA [12]": {"tested_on": "Quadruplex DNA", "assay": "Stabilization of c-MYC G4 quadruplex DNA KRAS (unknown origin) assessed as shift in temperature at which 50% protein unfold by circular dichroism melting assay"}, "MDA-MB-231 [13]": {"tested_on": "MDA-MB-231", "assay": "Induction of cell cycle arrest in human MDA-MB-231 cells assessed as accumulation of cells at S phase at 1 uM incubated for 24 hrs by propidium iodide staining based flow cytometry analysis (reference value: 15.50%)", "assay_type": "functional"}, "MDA-MB-231 [14]": {"tested_on": "MDA-MB-231", "assay": "Induction of cell cycle arrest in human MDA-MB-231 cells assessed as accumulation of cells at sub-G1 phase at 2 uM incubated for 24 hrs by propidium iodide staining based flow cytometry analysis (reference value: 0.57%)", "assay_type": "functional"}, "MDA-MB-231 [15]": {"tested_on": "MDA-MB-231", "assay": "Upregulation of phosphorylated ATM in human MDA-MB-231 cells at 1 to 4 uM measured after 24 hrs by Western blot analysis", "assay_type": "functional, cell-based", "settings": "dose 1-4 µM"}, "Quadruplex DNA [16]": {"tested_on": "Quadruplex DNA", "assay": "Stabilization of G4 quadruplex telomeric22 DNA (unknown origin) assessed as change in melting temperature by circular dichroism melting assay"}, "Quadruplex DNA [17]": {"tested_on": "Quadruplex DNA", "assay": "Stabilization of c-Myc G4 quadruplex DNA (unknown origin) assessed as temperature at which 50% protein unfold by circular dichroism melting assay", "assay_type": "nucleic-acid assay"}, "MDA-MB-231 [18]": {"tested_on": "MDA-MB-231", "assay": "Induction of cell cycle arrest in human MDA-MB-231 cells assessed as accumulation of cells at G2/M phase at 4 uM incubated for 24 hrs by propidium iodide staining based flow cytometry analysis (reference value: 17.58%)", "assay_type": "functional"}, "MDA-MB-231 [19]": {"tested_on": "MDA-MB-231", "assay": "Induction of cell cycle arrest in human MDA-MB-231 cells assessed as accumulation of cells at G0/G1 phase at 4 uM incubated for 24 hrs by propidium iodide staining based flow cytometry analysis (reference value: 66.35%)", "assay_type": "functional"}, "MDA-MB-231 [20]": {"tested_on": "MDA-MB-231", "assay": "Inhibition of cell migration in human MDA-MB-231 cells assessed as reduction in migration at 1 to 4 uM measured after 24 hrs by transwell migration assay", "assay_type": "functional, cell-based", "settings": "dose 1-4 µM"}, "Quadruplex DNA [21]": {"tested_on": "Quadruplex DNA", "assay": "Stabilization of c-MYC G4 quadruplex DNA (unknown origin) assessed as change in temperature incubated for 2 hrs in presence of duplex DNA by FRET assay", "assay_type": "nucleic-acid assay"}, "KYSE-30": {"tested_on": "KYSE-30", "assay": "Cytotoxicity against human KYSE-30 cells assessed as reduction in cell viability by CCK8 assay", "assay_type": "functional, cell-based"}, "MDA-MB-231 [22]": {"tested_on": "MDA-MB-231", "assay": "Antitumor activity against human MDA-MB-231 cells xenografted in BALB/c mouse assessed as reduction in c-MYC expression at 5 mg/kg, ip administered every other day for 20 days and measured every 4 days by immunohistochemistry analysis", "assay_type": "functional, organism-based", "settings": "time 20.0 day"}, "MDA-MB-231 [23]": {"tested_on": "MDA-MB-231", "assay": "Cytotoxicity against human MDA-MB-231 cells assessed as inhibition of cell growth at 0 to 20 uM incubated for 48 hrs by CCK-8 assay", "assay_type": "functional, cell-based", "settings": "MDA-MB-231, 48 h"}, "HEK293": {"tested_on": "HEK293", "assay": "Downregulation of c-MYC expression in human HEK293 cells transfected with psiCHECK2 luciferase plasmid at 1 to 4 uM incubated for 24 hrs by dual luciferase reporter assay", "assay_type": "functional, cell-based", "settings": "dose 1-4 µM"}, "MDA-MB-231 [24]": {"tested_on": "MDA-MB-231", "assay": "Induction of cell cycle arrest in human MDA-MB-231 cells assessed as accumulation of cells at sub-G1 phase at 1 uM incubated for 24 hrs by propidium iodide staining based flow cytometry analysis (reference value: 0.57%)", "assay_type": "functional"}, "MDA-MB-231 [25]": {"tested_on": "MDA-MB-231", "assay": "Inhibition of cell migration in human MDA-MB-231 cells assessed as reduction in migration at 1 to 4 uM measured after 24 to 48 hrs by wound healing assay", "assay_type": "functional, cell-based", "settings": "dose 1-4 µM, time 24-48 hrs"}, "MDA-MB-231 [26]": {"tested_on": "MDA-MB-231", "assay": "Induction of cell cycle arrest in human MDA-MB-231 cells assessed as accumulation of cells at G0/G1 phase at 1 uM incubated for 24 hrs by propidium iodide staining based flow cytometry analysis (reference value: 66.35%)", "assay_type": "functional"}, "MDA-MB-231 [27]": {"tested_on": "MDA-MB-231", "assay": "Induction of apoptosis in human MDA-MB-231 cells assessed as caspase-3 cleavage at 1 to 4 uM incubated for 24 hrs by Western blot analysis", "assay_type": "functional, cell-based", "settings": "dose 1-4 µM"}, "MDA-MB-231 [28]": {"tested_on": "MDA-MB-231", "assay": "Induction of cell cycle arrest in human MDA-MB-231 cells assessed as downregulation of Cdc2 expression at 1 to 4 uM incubated for 24 hrs by Western blot analysis", "assay_type": "functional, cell-based", "settings": "dose 1-4 µM"}, "MDA-MB-231 [29]": {"tested_on": "MDA-MB-231", "assay": "Induction of cell cycle arrest in human MDA-MB-231 cells assessed as accumulation of cells at G0/G1 phase at 2 uM incubated for 24 hrs by propidium iodide staining based flow cytometry analysis (reference value: 66.35%)", "assay_type": "functional"}, "Quadruplex DNA [30]": {"tested_on": "Quadruplex DNA", "assay": "Stabilization of c-MYC G4 quadruplex DNA (unknown origin) assessed as change in temperature incubated for 2 hrs in presence of telomer by FRET assay", "assay_type": "nucleic-acid assay"}, "MDA-MB-231 [31]": {"tested_on": "MDA-MB-231", "assay": "Cytotoxicity against human MDA-MB-231 cells assessed as reduction in cell viability at 0 to 20 uM by CCK-8 assay", "assay_type": "functional, cell-based", "settings": "dose 0-20 µM, time 24-72 hrs, TDE = time-dependent effect"}, "MDA-MB-231 [32]": {"tested_on": "MDA-MB-231", "assay": "Cytotoxicity against human MDA-MB-231 cells assessed as reduction in cell viability by CCK8 assay", "assay_type": "functional, cell-based"}}, "note": "Calls of active or inactive are those of the source. No cut-off for these calls is given here.", "data": [{"smiles": "CN1CCN(c2ccc(-c3nc(-c4ccc(-c5ccc(C(F)(F)F)cc5)cc4)[nH]c3-c3ccc(N4CCN(C)CC4)cc3)cc2)CC1", "values": [{"measurement": "Activity", "setting": "[1]", "result": "Non-Toxic"}, {"measurement": "IC50", "setting": "MDA-MB-231 [2]", "result": 1.84, "unit": "µM"}, {"measurement": "IC50", "setting": "MDA-MB-231 [3]", "result": 0.66, "unit": "µM"}, {"measurement": "Activity", "setting": "[4]", "result": "Non-Toxic"}, {"measurement": "Activity", "setting": "MDA-MB-231 [5]", "result": "Active"}, {"measurement": "Activity", "setting": "MDA-MB-231 [6]", "result": "Active"}, {"measurement": "Activity", "setting": "MDA-MB-231 [7]", "result": 6.09, "unit": "%"}, {"measurement": "Activity", "setting": "MDA-MB-231 [8]", "result": "Active"}, {"measurement": "Activity", "setting": "Quadruplex DNA [9]", "result": "Active"}, {"measurement": "IC50", "setting": "[10]", "result": 8.77, "unit": "µM"}, {"measurement": "Activity", "setting": "MDA-MB-231 [11]", "result": "Active"}, {"measurement": "ΔTm", "setting": "Quadruplex DNA [12]", "result": 11.2, "unit": "°C"}, {"measurement": "Activity", "setting": "MDA-MB-231 [13]", "result": 11.14, "unit": "%"}, {"measurement": "Activity", "setting": "MDA-MB-231 [14]", "result": 0.68, "unit": "%"}, {"measurement": "Activity", "setting": "MDA-MB-231 [15]", "result": "Active"}, {"measurement": "ΔTm", "setting": "Quadruplex DNA [16]", "result": 0, "unit": "°C"}, {"measurement": "T", "setting": "Quadruplex DNA [17]", "result": 34.6, "unit": "°C"}, {"measurement": "Activity", "setting": "MDA-MB-231 [18]", "result": 30.7, "unit": "%"}, {"measurement": "Activity", "setting": "MDA-MB-231 [19]", "result": 18.23, "unit": "%"}, {"measurement": "inhibition", "setting": "MDA-MB-231 [20]", "result": "Active"}, {"measurement": "Activity", "setting": "Quadruplex DNA [21]", "result": "Active"}, {"measurement": "IC50", "setting": "KYSE-30", "result": 1.31, "unit": "µM"}, {"measurement": "Activity", "setting": "MDA-MB-231 [22]", "result": "Active"}, {"measurement": "IC50", "setting": "MDA-MB-231 [23]", "result": 0.87, "unit": "µM"}, {"measurement": "Activity", "setting": "HEK293", "result": "Active"}, {"measurement": "Activity", "setting": "MDA-MB-231 [24]", "result": 0.66, "unit": "%"}, {"measurement": "inhibition", "setting": "MDA-MB-231 [25]", "result": "Active"}, {"measurement": "Activity", "setting": "MDA-MB-231 [26]", "result": 74.71, "unit": "%"}, {"measurement": "Activity", "setting": "MDA-MB-231 [27]", "result": "Active"}, {"measurement": "Activity", "setting": "MDA-MB-231 [28]", "result": "Active"}, {"measurement": "Activity", "setting": "MDA-MB-231 [29]", "result": 76.42, "unit": "%"}, {"measurement": "Activity", "setting": "Quadruplex DNA [30]", "result": "Active"}, {"measurement": "Activity", "setting": "MDA-MB-231 [31]", "result": "Tde"}, {"measurement": "IC50", "setting": "MDA-MB-231 [32]", "result": 1.84, "unit": "µM"}]}]}
